Reference: ChEMBL document CHEMBL5390307, “Sila-CBD Derivatives as Inhibitors of Heme-Induced NLRP3 Inflammasome: Application in Hemolytic Diseases” (ACS Med Chem Lett, 2023)
Calls of active or inactive are those of the source. No cut-off for these calls is given here.

Assays:
[1] = molecular target: NACHT, LRR and PYD domains-containing protein 3 (Mus musculus) (UniProt Q8R4B8); experiment: Inhibition of NLRP3 inflammasome in mouse J774.A1 cells assessed as reduction in TNF-alpha in presence of LPS at 0.1 to 1 uM pretreated for 1 hr followed by LPS stimulation measured after 24 hrs by ELISA method; format: cell-based; conditions: dose 0.1-1 µM, time 25.0 hrs
Sequence of NACHT, LRR and PYD domains-containing protein 3 (Mus musculus) (Q8R4B8 whole entry, the tested form may be a part): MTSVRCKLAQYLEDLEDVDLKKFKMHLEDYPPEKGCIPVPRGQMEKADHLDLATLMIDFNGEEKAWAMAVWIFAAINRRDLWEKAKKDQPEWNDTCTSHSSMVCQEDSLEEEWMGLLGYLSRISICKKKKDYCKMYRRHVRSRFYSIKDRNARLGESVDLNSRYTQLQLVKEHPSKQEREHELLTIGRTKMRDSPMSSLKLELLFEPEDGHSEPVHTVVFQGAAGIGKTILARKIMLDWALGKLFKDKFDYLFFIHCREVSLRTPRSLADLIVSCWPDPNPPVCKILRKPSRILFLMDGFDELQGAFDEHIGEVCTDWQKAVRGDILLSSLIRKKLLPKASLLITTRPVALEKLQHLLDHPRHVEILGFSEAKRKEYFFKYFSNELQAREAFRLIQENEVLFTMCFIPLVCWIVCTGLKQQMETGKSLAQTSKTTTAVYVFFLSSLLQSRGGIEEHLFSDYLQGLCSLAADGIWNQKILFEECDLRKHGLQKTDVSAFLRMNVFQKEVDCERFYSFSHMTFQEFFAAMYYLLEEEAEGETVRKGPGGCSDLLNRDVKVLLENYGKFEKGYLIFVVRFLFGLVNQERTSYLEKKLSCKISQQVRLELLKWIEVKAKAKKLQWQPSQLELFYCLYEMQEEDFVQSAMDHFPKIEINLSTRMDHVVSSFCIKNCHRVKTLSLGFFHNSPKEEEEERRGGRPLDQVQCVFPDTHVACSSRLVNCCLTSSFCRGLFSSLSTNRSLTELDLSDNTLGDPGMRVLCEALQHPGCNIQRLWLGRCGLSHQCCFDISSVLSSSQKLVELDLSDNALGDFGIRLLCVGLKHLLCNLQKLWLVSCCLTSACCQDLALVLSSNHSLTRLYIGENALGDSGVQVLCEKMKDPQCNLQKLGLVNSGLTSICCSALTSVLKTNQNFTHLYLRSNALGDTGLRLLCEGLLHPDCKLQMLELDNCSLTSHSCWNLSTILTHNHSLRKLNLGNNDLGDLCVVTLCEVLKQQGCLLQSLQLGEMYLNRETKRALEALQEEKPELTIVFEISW

[2] = molecular target: NACHT, LRR and PYD domains-containing protein 3 (Homo sapiens) (UniProt Q96P20); experiment: Inhibition of NLRP3 mediated in HEME-induced inflammasome in human PMA differentiated THP-1 cells assessed as reduction in IL-1beta level in presence of LPS at 1 uM pretreated for 1 hr followed by hemin addition measured after 1 hrs by ELISA method; format: cell-based; conditions: time 2.0 hrs
Sequence of NACHT, LRR and PYD domains-containing protein 3 (Homo sapiens) (Q96P20 whole entry, the tested form may be a part): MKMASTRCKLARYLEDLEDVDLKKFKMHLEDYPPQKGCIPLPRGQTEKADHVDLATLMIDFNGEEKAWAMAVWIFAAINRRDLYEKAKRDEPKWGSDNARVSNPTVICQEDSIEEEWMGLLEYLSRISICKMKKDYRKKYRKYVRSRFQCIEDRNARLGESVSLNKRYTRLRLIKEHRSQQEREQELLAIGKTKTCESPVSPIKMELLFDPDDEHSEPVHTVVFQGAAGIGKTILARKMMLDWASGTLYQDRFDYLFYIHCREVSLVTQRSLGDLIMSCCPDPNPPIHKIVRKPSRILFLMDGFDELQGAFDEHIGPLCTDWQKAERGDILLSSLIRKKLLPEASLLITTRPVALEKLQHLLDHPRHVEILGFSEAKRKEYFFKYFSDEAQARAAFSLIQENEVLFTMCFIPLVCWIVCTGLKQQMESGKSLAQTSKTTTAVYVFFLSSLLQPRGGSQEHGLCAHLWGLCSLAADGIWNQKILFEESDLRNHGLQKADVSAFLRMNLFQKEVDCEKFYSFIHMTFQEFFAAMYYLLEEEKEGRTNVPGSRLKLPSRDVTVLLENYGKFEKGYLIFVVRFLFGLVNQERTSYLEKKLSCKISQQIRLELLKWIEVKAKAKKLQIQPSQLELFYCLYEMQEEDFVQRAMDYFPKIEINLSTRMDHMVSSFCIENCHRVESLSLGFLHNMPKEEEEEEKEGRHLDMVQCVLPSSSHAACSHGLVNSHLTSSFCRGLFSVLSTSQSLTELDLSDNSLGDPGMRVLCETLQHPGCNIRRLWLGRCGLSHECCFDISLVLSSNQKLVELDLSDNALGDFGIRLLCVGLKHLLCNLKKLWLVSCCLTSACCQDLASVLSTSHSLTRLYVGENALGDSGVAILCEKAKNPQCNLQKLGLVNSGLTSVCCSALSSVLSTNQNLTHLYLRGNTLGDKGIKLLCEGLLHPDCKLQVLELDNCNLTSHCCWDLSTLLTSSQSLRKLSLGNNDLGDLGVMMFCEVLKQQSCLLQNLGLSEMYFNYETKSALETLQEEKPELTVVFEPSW

J774.A1 = experiment: Cytotoxicity against mouse J774.A1 cells assessed as reduction in cell viability at 10 uM incubated for 24 hrs by MTT assay; format: toxicity, cell-based; conditions: j774.a1, 24 h
[3] = molecular target: NACHT, LRR and PYD domains-containing protein 3 (Homo sapiens) (UniProt Q96P20); experiment: Inhibition of NLRP3 mediated in HEME-induced inflammasome in human PMA differentiated THP-1 cells assessed as reduction in IL-1beta level in presence of LPS at 10 uM pretreated for 1 hr followed by hemin addition measured after 1 hrs by ELISA method; format: cell-based; conditions: time 2.0 hrs
[4] = molecular target: NACHT, LRR and PYD domains-containing protein 3 (Mus musculus) (UniProt Q8R4B8); experiment: Inhibition of NLRP3 inflammasome in mouse J774.A1 cells assessed as reduction in IL-6 in presence of LPS at 10 uM pretreated for 1 hr followed by LPS stimulation measured after 24 hrs by ELISA method; format: cell-based; conditions: time 25.0 hrs
[5] = molecular target: NACHT, LRR and PYD domains-containing protein 3 (Mus musculus) (UniProt Q8R4B8); experiment: Inhibition of NLRP3 inflammasome in mouse J774.A1 cells assessed as reduction in IL-6 in presence of LPS at 0.1 to 1 uM pretreated for 1 hr followed by LPS stimulation measured after 24 hrs by ELISA method; format: cell-based; conditions: dose 0.1-1 µM, time 25.0 hrs
[6] = molecular target: NACHT, LRR and PYD domains-containing protein 3 (Mus musculus) (UniProt Q8R4B8); experiment: Inhibition of NLRP3 inflammasome in mouse J774.A1 cells assessed as reduction in TNF-alpha in presence of LPS at 10 uM pretreated for 1 hr followed by LPS stimulation measured after 24 hrs by ELISA method; format: cell-based; conditions: time 25.0 hrs
[7] = molecular target: NACHT, LRR and PYD domains-containing protein 3 (Homo sapiens) (UniProt Q96P20); experiment: Inhibition of NLRP3 mediated in HEME-induced inflammasome in human PMA differentiated THP-1 cells assessed as reduction in IL-1beta level in presence of LPS at 0.1 to 10 uM pretreated for 1 hr followed by hemin addition measured after 1 hrs by ELISA method; format: cell-based; conditions: dose 0.1-10 µM, time 2.0 hrs
[8] = molecular target: NACHT, LRR and PYD domains-containing protein 3 (Homo sapiens) (UniProt Q96P20); experiment: Inhibition of NLRP3 mediated in HEME-induced inflammasome in human PMA differentiated THP-1 cells assessed as reduction in IL-1beta level in presence of LPS at 10 uM pretreated for 1 hr followed by hemin addition measured after 1 hrs by ELISA method relative to control; format: cell-based; conditions: time 2.0 hrs
[9] = Metabolic stability in mouse liver microsomes in presence of NADPH measured after 5 mins by single ion monitoring mode based LC-MS method; format: ADME, Microsome
[10] = Metabolic stability in mouse liver microsomes assessed as drug degradation measured after 5 mins in absence of NADPH by single ion monitoring mode based LC-MS method relative to control; format: ADME, Microsome; conditions: read-out: Drug degradation
Mus musculus [11] = experiment: Antiinflammatory activity against LPS/HEME-induced Balb/C mouse model assessed as reduction of IL-1 beta secretion at 1 mg/kg, ip administered for 30 mins followed by LPS for 4 hrs incubation and later stimulated with HEME for 1 hrs by ELISA; format: functional, organism-based; conditions: time 330.0 min
[12] = Metabolic stability in mouse liver microsomes assessed as drug degradation in the presence of NADPH measured after 5 mins by LC-MS method; format: ADME, Microsome
[13] = molecular target: NACHT, LRR and PYD domains-containing protein 3 (Homo sapiens) (UniProt Q96P20); experiment: Inhibition of NLRP3 mediated in HEME-induced inflammasome in human PMA differentiated THP-1 cells assessed as reduction in IL-1beta level in presence of LPS at 1 uM pretreated for 1 hr followed by hemin addition measured after 1 hrs by ELISA method relative to control; format: cell-based; conditions: time 2.0 hrs
Mus musculus [14] = experiment: Antiinflammatory activity against LPS/HEME-induced Balb/C mouse model assessed as reduction of IL-1 beta secretion at 10 mg/kg, ip administered for 30 mins followed by LPS for 4 hrs incubation and later stimulated with HEME for 1 hrs by ELISA; format: functional, organism-based; conditions: time 330.0 min
[15] = molecular target: NACHT, LRR and PYD domains-containing protein 3 (Homo sapiens) (UniProt Q96P20); experiment: Inhibition of NLRP3 mediated in HEME-induced inflammasome in human PMA differentiated THP-1 cells assessed as reduction in IL-1beta level in presence of LPS at 0.1 uM pretreated for 1 hr followed by hemin addition measured after 1 hrs by ELISA method relative to control; format: cell-based; conditions: time 2.0 hrs
Mus musculus [16] = experiment: Antiinflammatory activity against LPS/HEME-induced Balb/C mouse model assessed as reduction of IL-1 beta secretion at 30 mg/kg, ip administered for 30 mins followed by LPS for 4 hrs incubation and later stimulated with HEME for 1 hrs by ELISA; format: functional, organism-based; conditions: time 330.0 min
[17] = Metabolic stability in human liver microsomes assessed as drug degradation measured after 5 mins by LC-MS method relative to control; format: ADME, Microsome; conditions: read-out: Drug degradation

Row | Structure (SMILES) | inhibition [1] | inhibition [2] | Activity (J774.A1) | inhibition [5] | also measured
1 | CCCC[Si](C)(C)C1=CC(=O)C(C/C=C(\C)CCC=C(C)C)=C(O)C1=O | inactive | Active | Non-Toxic | inactive | inhibition [3]: Active; inhibition [4]: Active
2 | CC(C)=CCC/C(C)=C/CC1=C(O)C(=O)C([Si](C)(C)C)=CC1=O | inactive | Active | Non-Toxic | inactive | inhibition [6]: Active; inhibition [3]: Active
3 | CCCCCC1=CC(=O)C(C/C=C(\C)CCC=C(C)C)=C(O)C1=O | – | – | – | – | inhibition [7]: inactive
4 | C=C(C)[C@@H]1CCC(C)=C[C@H]1c1c(O)cc([Si](C)(C)CCCC)cc1O | – | – | Non-Toxic | – | –
5 | C=C(C)[C@@H]1CCC(C)=C[C@H]1c1c(O)cc([Si](C)(C)CCCCCC)cc1O | – | – | Non-Toxic | – | –
6 | CCCCCc1cc(O)c(C/C=C(\C)CCC=C(C)C)c(O)c1 | – | Active | – | – | –
7 | CCCCCC[Si](C)(C)c1cc(O)c(C/C=C(\C)CCC=C(C)C)c(O)c1 | – | Active | Non-Toxic | – | inhibition [8]: 60%
8 | CC(C)=CCC/C(C)=C/Cc1c(O)cc([Si](C)(C)C)cc1O | – | – | Non-Toxic | – | –
9 | C=C(C)[C@@H]1CCC(C)=C[C@H]1C1=C(O)C(=O)C(CCCCC)=CC1=O | – | – | – | – | inhibition [7]: inactive; Stability [9]: Stable; metabolised at 5 min [10]: < 20%
10 | COc1cc2c(c(OC)c1OC)-c1ccc(OC)c(=O)cc1[C@@H](NC(C)=O)CC2 | – | – | – | – | Activity (Mus musculus [11]): Active
11 | CCCC[Si](C)(C)c1cc(O)c(C/C=C(\C)CCC=C(C)C)c(O)c1 | – | – | Non-Toxic | – | –
12 | C=C(C)[C@@H]1CCC(C)=C[C@H]1C1=C(O)C(=O)C([Si](C)(C)C)=CC1=O | Active | – | Non-Toxic | Active | Drug degradation [12]: Stable; inhibition [13]: > 50%; inhibition [6]: Active; Activity (Mus musculus [14]): Active; inhibition [15]: > 20%; Activity (Mus musculus [16]): Active; metabolised at 5 min [17]: 10%; inhibition [8]: > 80%
13 | CCCCCC[Si](C)(C)C1=CC(=O)C(C/C=C(\C)CCC=C(C)C)=C(O)C1=O | inactive | Active | Non-Toxic | inactive | inhibition [3]: Active; inhibition [4]: Active
